Results on twelve molecules are retold here after PubChem BioAssay (NCI).

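Following 48 hours of exposure in 96-well plates, responses at five concentrations were used to interpolate endpoints linearly. GI50: concentration for 50% inhibition of growth. The concentration for full growth arrest is given as TGI.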

Test systems include MCF7 breast; M14 melanoma; SK-MEL-28 melanoma; LOX IMVI melanoma; UACC-257 melanoma; SK-OV-3 ovarian; SW-620 colon; HOP-62 NSCLC.
Assay in all cases: growth of human tumour cells (NCI), 48 h

As for `CCOC(=O)c1sc(-c2ccc(OS(=O)(=O)c3cccs3)c(C=O)c2)nc1C`, the GI50 is 1.88 µM with MCF7 breast; 1.9 µM in the test on M14 melanoma; 2.01 µM in the test with SK-MEL-28 melanoma; 1.77 µM in the test with LOX IMVI melanoma; 2.51 µM in the test on UACC-257 melanoma; 3.25 µM with SK-OV-3 ovarian. For the same molecule, the TGI in the test with MCF7 breast turned out to be 4.51 µM; with M14 melanoma, 3.86 µM; in the test with SK-MEL-28 melanoma, 4.07 µM; in the test with LOX IMVI melanoma, 3.33 µM; in the test with UACC-257 melanoma, 6.35 µM; with SK-OV-3 ovarian, 7.79 µM.
As to `NC(=O)CCC(NC(=O)OCc1ccccc1)C(=O)OCC(=O)c1ccccc1` (configuration not stated), the GI50 in the test with MCF7 breast is over 100 µM; in the test on SK-MEL-28 melanoma, 43.9 µM; in the test on LOX IMVI melanoma, over 100 µM; with UACC-257 melanoma, over 100 µM; in the test on SW-620 colon, over 100 µM; with SK-OV-3 ovarian it was over 100 µM. Also, the GI50 in the test on HOP-62 NSCLC is over 100 µM. The TGI with MCF7 breast, in the test with SK-MEL-28 melanoma, in the test with LOX IMVI melanoma, with UACC-257 melanoma, in the test with SW-620 colon and with SK-OV-3 ovarian was over 100 µM throughout. In addition, in the test on HOP-62 NSCLC, the TGI is over 100 µM.
For `Cc1ccc2c(c1)C(=O)c1c-2n(CCCN)c(=O)c2cc([N+](=O)[O-])ccc12`, the GI50 in the test on MCF7 breast is 0.113 µM; with M14 melanoma, 0.452 µM; with SK-MEL-28 melanoma, 2.27 µM; with LOX IMVI melanoma it was 0.177 µM; in the test with UACC-257 melanoma it was 1.52 µM; in the test on SK-OV-3 ovarian, 0.147 µM. The GI50 with HOP-62 NSCLC was 0.0389 µM. For the same molecule, the TGI with MCF7 breast is 0.836 µM; in the test on M14 melanoma it was 1.16 µM; with SK-MEL-28 melanoma, 4.63 µM; in the test on LOX IMVI melanoma, 0.829 µM; with UACC-257 melanoma, 4.97 µM; in the test with SK-OV-3 ovarian, 0.502 µM. Also, the TGI with HOP-62 NSCLC was 0.428 µM.
Take `C=C(CN1CCN(c2ccccc2OC)CC1)c1ccc(C(=O)Nc2ccccc2N)cc1`: the GI50 in the test on MCF7 breast was 16.7 µM; in the test on M14 melanoma, 12.1 µM; in the test on SK-MEL-28 melanoma, 2.14 µM; with LOX IMVI melanoma, 0.243 µM; in the test on SW-620 colon, 2.1 µM; in the test on SK-OV-3 ovarian, 7.18 µM. Also, the GI50 in the test with HOP-62 NSCLC was 3.27 µM. Besides, the TGI in the test with MCF7 breast was over 50 µM; in the test on M14 melanoma, over 50 µM; with SK-MEL-28 melanoma it was over 50 µM; in the test on LOX IMVI melanoma, 1.42 µM; with SW-620 colon, over 50 µM; in the test on SK-OV-3 ovarian it was 18.1 µM. In the test on HOP-62 NSCLC, the TGI was over 50 µM.
As for `CCN(CC)CCN1C(=O)c2c(c(C)c3c(oc4cc(O)ccc43)c2C)C1=O`, the GI50 with MCF7 breast was 1.65 µM; in the test with M14 melanoma, 1.81 µM; in the test with SK-MEL-28 melanoma it was 1.58 µM; in the test on LOX IMVI melanoma, 1.7 µM; with UACC-257 melanoma, 1.95 µM; in the test with SK-OV-3 ovarian, 1.83 µM. For the same molecule, the GI50 in the test on HOP-62 NSCLC is 2.06 µM. In addition, the TGI in the test with MCF7 breast was determined as 3.32 µM; in the test with M14 melanoma, 3.63 µM; with SK-MEL-28 melanoma, 3.03 µM; with LOX IMVI melanoma it was 3.18 µM; with UACC-257 melanoma, 4.15 µM; in the test with SK-OV-3 ovarian, 3.36 µM. Besides, the TGI in the test with HOP-62 NSCLC was found to be 4.84 µM.
Consider `CCN1CCN(c2nc(NNC(=O)Cc3ccccc3)nc(N3CCN(C(c4ccccc4)c4ccccc4)CC3)n2)CC1`, for which the GI50 is 1.83 µM in the test with M14 melanoma; 1.6 µM in the test with SK-MEL-28 melanoma; 1.89 µM in the test on LOX IMVI melanoma; 1.83 µM with UACC-257 melanoma; 1.87 µM in the test with SW-620 colon; 2.09 µM with SK-OV-3 ovarian. The GI50 in the test with HOP-62 NSCLC was 2.06 µM. Moreover, the TGI in the test with M14 melanoma amounted to 3.41 µM; in the test with SK-MEL-28 melanoma it was 2.98 µM; in the test with LOX IMVI melanoma, 3.43 µM; in the test on UACC-257 melanoma, 3.79 µM; in the test with SW-620 colon it was 3.69 µM; in the test with SK-OV-3 ovarian, 4.48 µM. In the test on HOP-62 NSCLC, this molecule yielded a TGI of 5.08 µM.
As to `O=C(c1ccccc1)C1C(C(=O)c2ccccc2)N1Cc1ccccc1` (configuration not stated), the TGI in the test with M14 melanoma, in the test with SK-MEL-28 melanoma, with LOX IMVI melanoma, with UACC-257 melanoma, with SW-620 colon and in the test with SK-OV-3 ovarian was over 100 µM each time. Besides, in the test with HOP-62 NSCLC, the TGI was over 100 µM.
On to `O=c1[nH]cc(CS(=O)(=O)Cc2c[nH]c(=O)[nH]c2=O)c(=O)[nH]1`, for which the TGI in the test on MCF7 breast, in the test with M14 melanoma, in the test with SK-MEL-28 melanoma, in the test with LOX IMVI melanoma, with UACC-257 melanoma and with SW-620 colon was over 100 µM throughout.
With `O=C(O)c1c(O)c2cc(Br)ccc2oc1=O`, the TGI in the test on MCF7 breast, in the test on M14 melanoma, in the test on SK-MEL-28 melanoma, in the test on LOX IMVI melanoma, in the test with UACC-257 melanoma and in the test with SW-620 colon was over 100 µM in each case. Also, the TGI in the test with HOP-62 NSCLC is over 100 µM.
Turning to `O=NC1c2cccc3cccc(c23)C1N=O` (configuration not stated), the TGI was 25.8 µM in the test with MCF7 breast; 27.3 µM in the test on M14 melanoma; 5.6 µM in the test on LOX IMVI melanoma; 27.5 µM in the test on UACC-257 melanoma; 12.7 µM in the test on SW-620 colon; 43.7 µM with SK-OV-3 ovarian. In the test on HOP-62 NSCLC, this molecule showed a TGI of 19.5 µM.
Regarding `Cl.[Pt].[c-]1ccccc1-c1ccccn1.c1ccc(P(c2ccccc2)C([PH+](c2ccccc2)c2ccccc2)[PH+](c2ccccc2)c2ccccc2)cc1`, the GI50 with MCF7 breast is 1.52 µM; with SK-MEL-28 melanoma, 2.64 µM; in the test with LOX IMVI melanoma, 1.65 µM; in the test on UACC-257 melanoma it was 3.26 µM; in the test with SW-620 colon, 2.32 µM; with SK-OV-3 ovarian, 3.57 µM. The GI50 with HOP-62 NSCLC is 2.39 µM. The TGI with MCF7 breast is 47 µM; in the test on SK-MEL-28 melanoma, 9.7 µM; in the test with LOX IMVI melanoma, 4.6 µM; in the test with UACC-257 melanoma, 38 µM; with SW-620 colon it was 8.31 µM; with SK-OV-3 ovarian it was over 100 µM. Besides, the TGI with HOP-62 NSCLC amounted to 9 µM.
As to `CC(CN=C(CC(=O)c1ccc(Br)cc1)c1ccccc1)N=C(CC(=O)c1ccc(Br)cc1)c1ccccc1` (configuration not stated), the GI50 was 2.91 µM with MCF7 breast; over 100 µM with SK-MEL-28 melanoma; 66.1 µM in the test with LOX IMVI melanoma; 7.77 µM in the test on UACC-257 melanoma; over 100 µM in the test with SW-620 colon; 9.05 µM with SK-OV-3 ovarian. The GI50 in the test with HOP-62 NSCLC is over 100 µM. Also, the TGI in the test with MCF7 breast, with SK-MEL-28 melanoma, in the test with LOX IMVI melanoma, in the test with UACC-257 melanoma, in the test with SW-620 colon and with SK-OV-3 ovarian was over 100 µM throughout. The same molecule had a TGI in the test on HOP-62 NSCLC of over 100 µM.
